Test results taken from PubChem BioAssay AID1845219 (Molecular Pharmacology Branch, DTP, NCI, 2023).

System: SYO-1 tumor spheroids, viability % test/control
Test: Anticancer human tumor SYO-1 cell line growth inhibition;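 further: spheroids exposed to agents for 7 days before viability read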;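 on viability, T/C: 100% = DMSO vehicle control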
Details: spheroids with HUVEC and MSC; for IC50: curve of first compound; for viability, T/C: stronger effect = lower value
From the text: Multicellular complex tumor spheroid response to DNA repair inhibitors in combination with DNA-damaging drugs
This study explores the anticancer activities of DNA-damaging drugs and inhibitors of DNA damage repair, both as single agents and in combinations. Complex tumor spheroids comprised of malignant cells, endothelial cells and mesenchymal stem cells served as an in vitro model for human solid tumors. This model system incorporates physiologically relevant features and patient-derived or established malignant cell lines with clinically relevant genetic alterations from many tumor types. Twenty-six patient-derived or established malignant cell lines were evaluated representing sarcoma, melanoma, small cell lung cancer (SCLC), non-small cell lung cancer (NSCLC), as well as bladder, ovarian and pancreatic cancers. The concentration ranges selected for each drug and investigational agent were based upon clinically achievable concentrations if the clinical Cmax of the agent was known.
Compounds. The drugs and compounds olaparib (NSC753686), talazoparib (NSC767125), berzosertib (NSC777718), elimusertib (NSC800525), nedisertib (NSC802822), VX-984 (NSC792969), AZD-1390 (NSC803789), temozolomide (NSC362856), topotecan (NSC609699), trabectedin (NSC813783), staurosporine (NSC755774), and gemcitabine (NSC613327) were obtained from the National Cancer Institute (NCI) Developmental Therapeutics Program Chemical Repository. The FDA-approved anticancer drug set is available from the Developmental Therapeutics Program at https://dtp.cancer.gov/organization/dscb/obtaining/available_plates.htm. […] The stock solutions were prepared in dimethyl sulfoxide (DMSO, Sigma-Aldrich, St. Louis, MO, cat. D2650) at 400-fold the tested concentration and stored at -70 degrees C. Prior to their use, the stock solutions were diluted in fresh medium and the final DMSO concentration in the assay was 0.25% (v/v). All drugs and investigational agents were tested over a range starting from a high concentration at or near the clinical Cmax and decreasing in half-log increments. If the clinical Cmax for an agent had not been determined, the highest concentration tested was 10 microM.
Cell Lines. The patient-derived cancer cell (PDC) lines: 156681-154-R-J1-PDC, 283228-195-R-J1-PDC, 287954-098-R-J1-PDC, 292921-168-R-J2-PDC, 349418-098-R-PDC, 425362-245-T-J1-PDC, 556581-035-R-J1-PDC, and BL0293-F563-PDC were received from the NCI Patient-Derived Models Repository (PDMR, https://pdmr.cancer.gov). The established cell lines HS-SY-2 (RRID:CVCL_8719), MPNST, and SYO-1 (RRID:CVCL_7146) were obtained from the Sloan Kettering Institute. The alveolar soft parts sarcoma cell line ASPS-1 (RRID:CVCL_S738) was established at the NCI and grown from internal seed stocks. The following established cell lines were purchased from the American Type Culture Collection (ATCC, Manassas, VA): G-401 (ATCC, cat. CRL-1441, RRID:CVCL_0270), SW982 (ATCC, cat. HTB-93, RRID:CVCL_1734), VA-ES-BJ (ATCC, cat. CRL-2138, RRID:CVCL_1785), NCI-H719 (ATCC, cat. CRL-5837, RRID:CVCL_1582), NCI-H196 (ATCC, cat. CRL-5823, RRID:CVCL_1509), NCI-H841 (ATCC, cat. CRL-5845, RRID:CVCL_1595), NCI-H1618 (ATCC, cat. CRL-5879, RRID:CVCL_1480), NCI-H1876 (ATCC, cat. CRL-5902, RRID:CVCL_1503), DMS 114 (ATCC, cat. CRL-2066; RRID:CVCL_1174), NCI-H211 (ATCC, cat. CRL-5824; RRID:CVCL_1529), and SW 1271 (ATCC, cat. CRL-2177, RRID:CVCL_1716). The small cell lung cancer cell line COR-L88 was purchased from Sigma-Aldrich (cat. 92031917-1VL, RRID:CVCL_1141). The non-small cell lung cancer cell lines NCI-H226 (RRID:CVCL_1544) and NCI-H322M (RRID:CVCL_1557) were established at the NCI and grown from internal seed stocks. Pooled donor human umbilical vein endothelial cells (HUVEC, Lonza, cat. CC-2519) and human mesenchymal stem cells (hMSC, Lonza, cat. PT-2501) were purchased from Lonza (Walkersville, MD).
Cell Culture. All cells were maintained in an incubator at 37 degrees C and 5% CO2 with 95% humidity. […]

[1] = second compound 0.003 µM, first compound 0.00949 µM
[2] = second compound 0.003 µM, first compound 0.03 µM
[3] = second compound 0.003 µM, first compound 0.0949 µM
[4] = second compound 0.003 µM, first compound 0.3 µM
[5] = second compound 0.003 µM, first compound 0.949 µM
[6] = second compound 0.003 µM, first compound 3 µM
[7] = second compound 0.00949 µM, first compound 0.00949 µM
[8] = second compound 0.00949 µM, first compound 0.03 µM
[9] = second compound 0.00949 µM, first compound 0.0949 µM
[10] = second compound 0.00949 µM, first compound 0.3 µM
[11] = second compound 0.00949 µM, first compound 0.949 µM
[12] = second compound 0.00949 µM, first compound 3 µM
[13] = second compound 0.03 µM, first compound 0.00949 µM
[14] = second compound 0.03 µM, first compound 0.03 µM
[15] = second compound 0.03 µM, first compound 0.0949 µM
[16] = second compound 0.03 µM, first compound 0.3 µM
[17] = second compound 0.03 µM, first compound 0.949 µM
[18] = second compound 0.03 µM, first compound 3 µM
[19] = second compound 0.0949 µM, first compound 0.00949 µM
[20] = second compound 0.0949 µM, first compound 0.03 µM
[21] = second compound 0.0949 µM, first compound 0.0949 µM
[22] = second compound 0.0949 µM, first compound 0.3 µM
[23] = second compound 0.0949 µM, first compound 0.949 µM
[24] = second compound 0.0949 µM, first compound 3 µM
[25] = second compound 0.3 µM, first compound 0.00949 µM
[26] = second compound 0.3 µM, first compound 0.03 µM
[27] = second compound 0.3 µM, first compound 0.0949 µM
[28] = second compound 0.3 µM, first compound 0.3 µM
[29] = second compound 0.3 µM, first compound 0.949 µM
[30] = second compound 0.3 µM, first compound 3 µM

| SMILES | IC50 (second compound 0.003 µM) | IC50 (second compound 0.00949 µM) | IC50 (second compound 0.03 µM) | IC50 (second compound 0.0949 µM) | IC50 (second compound 0.3 µM) | viability, T/C [3] | viability, T/C [4] | viability, T/C [5] | viability, T/C [6] | viability, T/C [9] | viability, T/C [10] | viability, T/C [11] | viability, T/C [12] | viability, T/C [15] | viability, T/C [16] | viability, T/C [17] | viability, T/C [18] | viability, T/C [21] | viability, T/C [22] | viability, T/C [23] | further results |
| --- | --- | --- | --- | --- | --- | --- | --- | --- | --- | --- | --- | --- | --- | --- | --- | --- | --- | --- | --- | --- | --- |
| CNCc1ccc(-c2cc(-c3nc(-c4ccc(S(=O)(=O)C(C)C)cc4)cnc3N)on2)cc1 + CC[C@@]1(O)C(=O)OCc2c1cc1n(c2=O)Cc2cc3c(CN(C)C)c(O)ccc3nc2-1 | 24.5 nM | < 9.49 nM | < 9.49 nM | < 9.49 nM | < 9.49 nM | 3.75% | 2.18% | 0.36% | 0.11% | 2.57% | 1.53% | 0.14% | 0.09% | 2.63% | 2.32% | 0.17% | 0.1% | 2.21% | 1.43% | 0.17% | viability, T/C [1]: 85.4%; viability, T/C [2]: 42.5%; viability, T/C [7]: 4.64%; viability, T/C [8]: 3.26%; viability, T/C [13]: 1.95%; viability, T/C [14]: 2.01%; viability, T/C [19]: 1.79%; viability, T/C [20]: 1.82%; viability, T/C [24]: 0.11%; viability, T/C [25]: 1.93%; viability, T/C [26]: 1.65%; viability, T/C [27]: 1.95%; viability, T/C [28]: 1.63%; viability, T/C [29]: 0.24%; viability, T/C [30]: 0.17% |
| Cn1ncnc1[C@H]1c2n[nH]c(=O)c3cc(F)cc(c23)N[C@@H]1c1ccc(F)cc1 + CC[C@@]1(O)C(=O)OCc2c1cc1n(c2=O)Cc2cc3c(CN(C)C)c(O)ccc3nc2-1 | < 9.49 nM | < 9.49 nM | < 9.49 nM | < 9.49 nM | < 9.49 nM | 1.89% | 1.63% | 1.45% | 1.47% | 1.68% | 1.41% | 1.63% | 1.37% | 1.7% | 1.53% | 1.32% | 1.28% | 1.72% | 1.66% | 1.34% | viability, T/C [1]: 3.29%; viability, T/C [2]: 2.24%; viability, T/C [7]: 1.7%; viability, T/C [8]: 1.69%; viability, T/C [13]: 1.69%; viability, T/C [14]: 1.49%; viability, T/C [19]: 1.59%; viability, T/C [20]: 1.89%; viability, T/C [24]: 1.13%; viability, T/C [25]: 1.71%; viability, T/C [26]: 1.64%; viability, T/C [27]: 1.52%; viability, T/C [28]: 1.37%; viability, T/C [29]: 1.3%; viability, T/C [30]: 1.04% |
| O=C(c1cc(Cc2n[nH]c(=O)c3ccccc23)ccc1F)N1CCN(C(=O)C2CC2)CC1 + CC[C@@]1(O)C(=O)OCc2c1cc1n(c2=O)Cc2cc3c(CN(C)C)c(O)ccc3nc2-1 | < 94.9 nM | < 94.9 nM | < 94.9 nM | < 94.9 nM | < 94.9 nM | 40.5% | 24.1% | 8.02% | 2.93% | 2.56% | 2.35% | 2.18% | 1.79% | 1.56% | 1.76% | 1.49% | 1.64% | 1.91% | 1.81% | 1.99% | viability, T/C (second compound 0.003 µM, first compound 9.49 µM): 2.62%; viability, T/C (second compound 0.003 µM, first compound 30 µM): 2.56%; viability, T/C (second compound 0.00949 µM, first compound 9.49 µM): 2.63%; viability, T/C (second compound 0.00949 µM, first compound 30 µM): 2.34%; viability, T/C (second compound 0.03 µM, first compound 9.49 µM): 1.62%; viability, T/C (second compound 0.03 µM, first compound 30 µM): 1.56%; viability, T/C [24]: 1.8%; viability, T/C (second compound 0.0949 µM, first compound 9.49 µM): 1.74%; viability, T/C (second compound 0.0949 µM, first compound 30 µM): 1.82%; viability, T/C [27]: 2.04%; viability, T/C [28]: 1.92%; viability, T/C [29]: 2.02%; viability, T/C [30]: 1.92%; viability, T/C (second compound 0.3 µM, first compound 9.49 µM): 1.99%; viability, T/C (second compound 0.3 µM, first compound 30 µM): 2.21% |
